We go through 1 compound from patent US20190264193A1, “PROTEIN ENGINEERING METHODS” (Caribou Biosciences, Inc., priority 2016, published 2019).

For assay [1], the target named is T1, DNA-PK (Homo sapiens, UniProt P78527). Description: DNA repair outcomes after Cas9 cleavage by amplicon sequencing, HEK293 plus NU7441. Type of assay: cell-based. The note with it: JAK1 target site; 48 hours after nucleofection of sgRNP in HEK293 plus NU7441 (FIG. 6F). The method, then: In order to assess DNA repair outcomes in human cells, the following experiment was conducted using methods as described in van Overbeek et al., Molecular Cell (2016) http://dx.doi.org/10.1016/j.molcel.2016.06.037. Briefly, the repair outcomes following Cas9 cleavage of double-stranded DNA, which result in blunt end products, were profiled using computational tools developed to categorize indels from a cell-based assay. To this end, HEK293, K562 and CCRF-CEM cells were transfected with pre-assembled complexes of Cas9 protein and sgRNA (single-guide RNA ribonucleoprotein complexes (sgRNPs). The Cas9/sgRNA complexes used were prepared as described in van Overbeek et al., Molecular Cell (2016) http://dx.doi.org/10.1016/j.molcel.2016.06.037. DNA repair patterns following Cas9 cleavage were analyzed by amplicon sequencing at time points as shown in FIGS. 6A-6F.
Sequencing reads were assigned to a specific indel class based on the indel type (insertion or deletion), start site, and length (or to the wild-type class), and then the frequency of each class was calculated as a fraction of aligned reads or as a fraction of mutant reads. […]

The target in assay [2] is T1, DNA-PK. The experiment in a line: NU7441 five point dose response on DNA repair patterns after sgRNP nucleofection. The note with it: HEK293 T cells. Type of assay: cell-based. Here is the method: In order to assess whether compounds can alter the DNA repair pathways, the following experiment was conducted with methods as described in van Overbeek et al., Molecular Cell (2016) http://dx.doi.org/10.1016/j.molcel.2016.06.037. Briefly, to test the hypothesis that suppression of c-NHEJ would alter the DNA repair landscapes, favoring MMEJ repair outcomes, a chemical inhibitor of DNA-PK, NU7441, was added to HEK293 T cells one hour post nucleofection in a five point dose response. Genomic lysate was harvested 48 hours post nucleofection and processed.
As inhibitor concentration increased, the mean frequency of single base insertions and small deletions (<3 base pairs) decreased, whereas the mean frequency of a subset of large deletions (>3 base pairs) present in the DNA repair profiles increased. This experiment evidences that the suppression of c-NHEJ enhances DNA repair by MMEJ pathways after DSB formation by Cas9.

Where [3] appears, read: as inhibitor concentration increased.

T1 sequence (P78527 whole entry): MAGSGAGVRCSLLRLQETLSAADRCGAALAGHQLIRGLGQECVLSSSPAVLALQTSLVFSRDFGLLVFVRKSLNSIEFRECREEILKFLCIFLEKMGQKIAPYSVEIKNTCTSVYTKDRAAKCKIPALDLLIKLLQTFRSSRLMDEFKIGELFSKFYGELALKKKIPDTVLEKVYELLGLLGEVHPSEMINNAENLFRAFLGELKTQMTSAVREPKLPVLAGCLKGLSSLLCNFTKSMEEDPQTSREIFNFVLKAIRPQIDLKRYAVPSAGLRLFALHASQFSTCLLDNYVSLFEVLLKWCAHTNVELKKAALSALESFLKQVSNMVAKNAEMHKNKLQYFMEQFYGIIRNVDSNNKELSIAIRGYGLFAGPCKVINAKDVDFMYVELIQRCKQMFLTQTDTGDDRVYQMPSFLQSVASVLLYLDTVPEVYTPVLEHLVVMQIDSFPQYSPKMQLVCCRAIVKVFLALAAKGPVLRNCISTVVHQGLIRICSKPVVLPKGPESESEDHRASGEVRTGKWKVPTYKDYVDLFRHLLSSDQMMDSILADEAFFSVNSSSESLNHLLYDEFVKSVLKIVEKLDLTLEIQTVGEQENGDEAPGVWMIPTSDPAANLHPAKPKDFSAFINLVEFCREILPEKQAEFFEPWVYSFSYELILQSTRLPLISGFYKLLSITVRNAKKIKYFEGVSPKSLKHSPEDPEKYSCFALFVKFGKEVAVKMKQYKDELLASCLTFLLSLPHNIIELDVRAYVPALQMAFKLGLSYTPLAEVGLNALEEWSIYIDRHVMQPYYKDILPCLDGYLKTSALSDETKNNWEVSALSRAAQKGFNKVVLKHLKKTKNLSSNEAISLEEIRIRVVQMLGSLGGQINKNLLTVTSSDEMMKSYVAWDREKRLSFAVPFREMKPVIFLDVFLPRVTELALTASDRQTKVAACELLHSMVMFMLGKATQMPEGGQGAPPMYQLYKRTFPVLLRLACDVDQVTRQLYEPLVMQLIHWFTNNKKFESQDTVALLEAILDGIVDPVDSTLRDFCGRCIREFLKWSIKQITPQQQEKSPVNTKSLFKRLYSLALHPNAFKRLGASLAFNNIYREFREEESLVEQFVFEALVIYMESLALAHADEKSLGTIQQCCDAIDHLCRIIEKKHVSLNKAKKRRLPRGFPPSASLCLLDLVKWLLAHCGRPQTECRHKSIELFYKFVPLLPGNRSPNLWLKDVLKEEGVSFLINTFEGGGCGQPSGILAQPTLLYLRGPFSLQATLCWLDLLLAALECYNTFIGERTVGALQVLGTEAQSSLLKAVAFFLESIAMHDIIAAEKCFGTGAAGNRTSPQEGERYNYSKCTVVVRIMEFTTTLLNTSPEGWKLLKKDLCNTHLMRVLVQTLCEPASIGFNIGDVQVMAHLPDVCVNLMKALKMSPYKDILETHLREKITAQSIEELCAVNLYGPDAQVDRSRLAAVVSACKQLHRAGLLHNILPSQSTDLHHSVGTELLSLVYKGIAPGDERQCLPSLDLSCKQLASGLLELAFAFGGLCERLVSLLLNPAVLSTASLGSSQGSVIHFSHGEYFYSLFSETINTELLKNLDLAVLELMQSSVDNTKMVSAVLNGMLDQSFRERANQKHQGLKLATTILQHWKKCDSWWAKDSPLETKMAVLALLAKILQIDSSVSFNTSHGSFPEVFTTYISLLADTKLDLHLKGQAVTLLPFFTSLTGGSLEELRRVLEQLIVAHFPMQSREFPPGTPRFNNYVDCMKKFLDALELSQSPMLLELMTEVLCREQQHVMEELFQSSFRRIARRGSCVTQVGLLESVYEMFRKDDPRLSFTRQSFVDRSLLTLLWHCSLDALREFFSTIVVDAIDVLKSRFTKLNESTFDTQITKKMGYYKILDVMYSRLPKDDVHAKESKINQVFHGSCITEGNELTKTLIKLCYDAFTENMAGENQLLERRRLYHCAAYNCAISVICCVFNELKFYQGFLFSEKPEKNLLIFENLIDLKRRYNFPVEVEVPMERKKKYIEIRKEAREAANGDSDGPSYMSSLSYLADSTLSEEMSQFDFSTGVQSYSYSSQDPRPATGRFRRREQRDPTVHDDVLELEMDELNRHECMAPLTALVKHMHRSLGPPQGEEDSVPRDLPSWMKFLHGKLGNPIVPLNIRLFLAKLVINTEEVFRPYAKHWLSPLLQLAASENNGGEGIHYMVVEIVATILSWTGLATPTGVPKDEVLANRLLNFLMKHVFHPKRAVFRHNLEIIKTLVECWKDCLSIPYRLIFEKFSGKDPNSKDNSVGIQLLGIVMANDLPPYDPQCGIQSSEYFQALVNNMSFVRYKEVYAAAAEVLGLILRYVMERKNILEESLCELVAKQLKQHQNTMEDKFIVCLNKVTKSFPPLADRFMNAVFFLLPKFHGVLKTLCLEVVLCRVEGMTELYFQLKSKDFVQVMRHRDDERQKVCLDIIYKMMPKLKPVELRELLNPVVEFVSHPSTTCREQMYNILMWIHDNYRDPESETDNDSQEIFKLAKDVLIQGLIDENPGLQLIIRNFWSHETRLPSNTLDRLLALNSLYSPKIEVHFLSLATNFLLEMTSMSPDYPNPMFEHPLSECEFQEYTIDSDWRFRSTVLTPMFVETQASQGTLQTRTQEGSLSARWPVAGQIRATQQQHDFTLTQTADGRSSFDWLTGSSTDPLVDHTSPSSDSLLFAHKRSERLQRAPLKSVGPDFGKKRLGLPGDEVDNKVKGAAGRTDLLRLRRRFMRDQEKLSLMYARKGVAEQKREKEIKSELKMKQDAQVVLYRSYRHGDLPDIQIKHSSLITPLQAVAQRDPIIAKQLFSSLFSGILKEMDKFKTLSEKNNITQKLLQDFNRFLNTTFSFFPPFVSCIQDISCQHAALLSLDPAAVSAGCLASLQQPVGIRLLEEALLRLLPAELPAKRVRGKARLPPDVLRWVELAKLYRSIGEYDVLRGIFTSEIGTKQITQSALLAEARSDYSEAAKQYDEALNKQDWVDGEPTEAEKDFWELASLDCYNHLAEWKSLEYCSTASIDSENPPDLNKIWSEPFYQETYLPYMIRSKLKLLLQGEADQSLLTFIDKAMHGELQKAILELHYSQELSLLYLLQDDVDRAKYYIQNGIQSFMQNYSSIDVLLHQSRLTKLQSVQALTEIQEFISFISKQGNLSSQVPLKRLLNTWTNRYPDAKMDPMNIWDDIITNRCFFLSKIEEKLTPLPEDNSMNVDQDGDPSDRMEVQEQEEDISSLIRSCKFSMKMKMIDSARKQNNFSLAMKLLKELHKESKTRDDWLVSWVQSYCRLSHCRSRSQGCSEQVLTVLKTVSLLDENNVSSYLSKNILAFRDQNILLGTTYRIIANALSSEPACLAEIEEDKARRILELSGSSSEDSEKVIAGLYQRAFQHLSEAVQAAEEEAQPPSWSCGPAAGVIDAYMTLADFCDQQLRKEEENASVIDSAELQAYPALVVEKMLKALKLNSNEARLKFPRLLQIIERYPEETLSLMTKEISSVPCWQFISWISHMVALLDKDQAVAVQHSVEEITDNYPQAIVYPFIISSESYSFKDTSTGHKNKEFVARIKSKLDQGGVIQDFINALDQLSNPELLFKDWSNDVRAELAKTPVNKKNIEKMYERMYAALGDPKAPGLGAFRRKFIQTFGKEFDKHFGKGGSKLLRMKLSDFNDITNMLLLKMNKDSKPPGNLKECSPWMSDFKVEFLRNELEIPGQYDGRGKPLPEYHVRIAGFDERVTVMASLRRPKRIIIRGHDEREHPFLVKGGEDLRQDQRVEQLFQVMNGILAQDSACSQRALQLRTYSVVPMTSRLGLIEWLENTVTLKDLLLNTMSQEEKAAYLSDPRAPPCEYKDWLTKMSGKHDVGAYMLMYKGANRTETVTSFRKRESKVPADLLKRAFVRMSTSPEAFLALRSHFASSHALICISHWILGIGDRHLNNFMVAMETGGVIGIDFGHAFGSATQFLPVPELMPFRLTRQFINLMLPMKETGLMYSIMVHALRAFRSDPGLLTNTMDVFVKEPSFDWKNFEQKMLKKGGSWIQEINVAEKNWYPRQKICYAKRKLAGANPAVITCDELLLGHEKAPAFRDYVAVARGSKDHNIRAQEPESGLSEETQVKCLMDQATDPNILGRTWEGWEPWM

For `O=c1cc(N2CCOCC2)oc2c(-c3cccc4c3sc3ccccc34)cccc12` [NU7441], the “DNA repair outcomes (classes and frequency) compared with FIG. 6A (HEK293 without inhibitor)” value in assay [1] is given as “different DNA repair outcomes”. Further, in assay [2] (setting [3]), the “mean frequency of a subset of large deletions (>3 base pairs)” value was “increased”; the “mean frequency of single base insertions and small deletions (<3 base pairs)” value is on record as “decreased”. In addition, the “change of the DNA repair patterns compared with untreated samples” value in assay [2] (lowest concentration of inhibitor 1.56 μM, 12 different target sites, added one hour post nucleofection, harvested 48 hours) is given as “a change of the DNA repair patterns at 12 different target sites compared with untreated samples was apparent”.
